Several values for one entry are separate records, joined by “and”; a condition that tells them apart may be missing. Equal values may be shown once. Read-outs that look alike come from different tables or passages of the source.
Key:
[1] = system: plaque adhering to supragingival calculus; assay: Viable cell numbers in plaque soaked in disinfectant (Test Example 4); type: cell-based; details: 60 minutes of immersion
[2] = system: thumbnails of volunteers; assay: Elongation of thumbnails (Test Example 7); type: in vivo, human; details: Left (treated) thumbnail
Text: As a general rule the bacterial disinfectants were applied immediately after hand washing. Nail growth and shape are closely tied to individual physical condition, and are a benchmark of health.

[3] = system: detached skin wounds of mice; assay: Recovery from skin damage (Test Example 5); type: in vivo; details: applied to wound twice a day
[4] = system: spores of sporulating bacteria; type: cell-based
[5] = system: putrefying bacteria in prepared food; assay: Viable cell numbers in prepared food after spraying (Test Example 3), summary; type: cell-based
Text: With regards to the putrefaction process of prepared food, we investigated whether or not the present bactericidal disinfectant could stop the progress of putrefaction when sprayed of food, and the degree of that bactericidal effect. Normally disinfectants are not applied to prepared food, but very often scraps of food become lodged in a periodontal pocket, providing a nutritional source for bacteria, and since the present bactericidal disinfectant is composed of compounds which are recognized as food additives, it is important to assess these effects. Just-prepared cooked rice, tofu (soybean curd), spinach with sesame dressing, and fried meat and vegetables were each crushed, homogenized, and left at 28° C. for use as the samples. […] Water alone was sprayed as a control. […] Water alone was sprayed as a control. […] Consequently, although complete eradication was not achieved, it can be said that bactericide was largely achieved. That is, there is the ability to halt development of putrefying bacteria in food and a bactericidal effect.

[6] = system: Red worms
Description: Red worms with a mean length of 40 mm were prepared in groups of 10, the annuli of the red worms were severed with a cutter, and ordinary concentrations of the various bactericidal disinfectants contained in absorbent cotton were applied to the severed ends twice a day, morning and night. Application to the ends was continued even after the severed ends healed, and recovery and growth were observed. Water was applied as a control.

[7] = system: plaque adhering to subgingival calculus; assay: Viable cell numbers in plaque soaked in disinfectant (Test Example 4); type: cell-based; details: 60 minutes of immersion
[8] = system: MRSA or E. coli O-157; type: cell-based; details: organic substance exceeding 50 ppm
[9] = system: putrefying bacteria in fried meat and vegetables; assay: Viable cell numbers in prepared food after spraying (Test Example 3); type: cell-based
Text: (§1) With regards to the putrefaction process of prepared food, we investigated whether or not the present bactericidal disinfectant could stop the progress of putrefaction when sprayed of food, and the degree of that bactericidal effect. Normally disinfectants are not applied to prepared food, but very often scraps of food become lodged in a periodontal pocket, providing a nutritional source for bacteria, and since the present bactericidal disinfectant is composed of compounds which are recognized as food additives, it is important to assess these effects. Just-prepared cooked rice, tofu (soybean curd), spinach with sesame dressing, and fried meat and vegetables were each crushed, homogenized, and left at 28° C. for use as the samples. After samples had been left for 5 hours, part of each was taken and used to measure bacterial viable cell number, while the respective disinfectants were sprayed uniformly on the remaining samples. Viable cell numbers were measured 1, 2 and 24 hours after spraying. Water alone was sprayed as a control. After samples had been left for 24 hours part of each was taken for measuring viable cell number, and the respective disinfectants were sprayed uniformly on the remaining samples. As when the samples were left for 5 hours, viable cell numbers were measured 1 hour, 2 hours and 24 hours after spraying. Water alone was sprayed as a control. Viable cell numbers were measured by the poured plate method using 5 g of each sample diluted by ordinary methods.
(§2) The degree of putrefaction of course differs depending on the preparation method, ingredients and environment, but in the case of the cooked rice in this experiment, the viable cell number immediately after preparation was […] cells/g of sample, rising to 1×10^3 cells/g of sample after 5 hours, 5×10^5 cells/g of sample after 24 hours and 7×10^6 cells/g of sample after 48 hours. In the case of the tofu (soybean curd), the initial viable cell number was 2×10^4 cells/g of sample, rising to 8×10^5 cells/g of sample after 5 hours, 9×10^7 cells/g of sample after 24 hours, and 1×10^9 cells/g of sample after 48 hours, with considerable putrefaction. In the case of the spinach with sesame dressing, the viable cell number was 2×10^3 cells/g of sample immediately after preparation, rising to 5×10^4 cells/g of sample after 5 hours, 3×10^7 cells/g of sample after 24 hours and 2×10^8 cells/g of sample after 48 hours. In the case of the fried meat and vegetables, it was […] cells/g of sample immediately after preparation, rising to 2×10^3 cells/g of sample after 5 hours and 2×10^8 cells/g of sample after 24 hours, at which point there was a slight smell of putrefaction, while after 48 hours putrefaction has progressed still further and the viable cell number had risen to 3×10^9 cells/g of sample.

[10] = system: putrefying bacteria in spinach with sesame dressing; assay: as above; type: cell-based
Text: as §1, §2

[11] = system: putrefying bacteria in tofu (soybean curd); assay: as above; type: cell-based
Text: as §1, §2

[12] = system: putrefying bacteria in cooked rice; assay: as above; type: cell-based
Text: as §1, §2

[13] = system: acid-fast bacteria; type: cell-based
[14] = sprayed after 5 hours, 24 hrs after spraying
[15] = sprayed after 5 hours, just after spraying
[16] = sprayed after 24 hours, 1 hr after spraying
[17] = sprayed after 24 hours, 2 hrs after spraying
[18] = sprayed after 24 hours, 24 hrs after spraying
[19] = sprayed after 24 hours, just after spraying

For `N=C(NCCCCCCNC(=N)NC(=N)Nc1ccc(Cl)cc1)NC(=N)Nc1ccc(Cl)cc1` [Hibitane], the “survival of bacteria living inside plaque” value [1] was “half survived”, the Elongation of nails ([2]; 10 days) was 0.8 mm and the Elongation of nails ([2]; 20 days) was 1.7 mm. For the same compound, the Elongation of nails ([2]; 30 days) was 2.5 mm, the Elongation of nails ([2]; 40 days) was 3.3 mm and the Elongation of nails ([2]; 50 days) was 4.2 mm. For the same compound, the Elongation of nails ([2]; 60 days) was 5.0 mm, the “Recovery: Thin skin overall” value [3] was 5 days and the “Recovery: Complete recovery (coat grown back)” value ([3]; listed as Hibitane gel) was 40 days and 38 days. The “Recovery: Skin with roughly original thickness” value ([3]; listed as Hibitane gel) was 12 days, the effect against spores [4] was “ineffective” and the “bactericidal effect on putrefying bacteria in food” value [5] was “no bactericidal effect in the real sense”. For the same compound, the “length of severed red worms” value ([6]; 5 days after severing, 20 mm when severed) was 21 mm, the “length of severed red worms” value ([6]; 10 days after severing) was 22 mm and the “length of severed red worms” value ([6]; 15 days after severing) was 23 mm. The Deaths ([6]; in vivo) was 10, the “survival of bacteria in plaque” value [7] was “continued to survive” and the “bactericidal effect in presence of organic substance” value [8] was “the bacteria did not die after 1 minute of contact”. The viable cell number [9, 14] was 5 × 10^3 cells/g of sample, the viable cell number [9, 15] was 2 × 10^2 cells/g of sample and the viable cell number [9, 16] was 5 × 10^2 cells/g of sample. For the same compound, the viable cell number [9, 17] was 2 × 10^2 cells/g of sample, the viable cell number [9, 18] was 5 × 10^4 cells/g of sample and the viable cell number [9, 19] was 7 × 10^4 cells/g of sample. The viable cell number [10, 14] was 6 × 10^2 cells/g of sample, the viable cell number [10, 15] was 2 × 10^2 cells/g of sample and the viable cell number [10, 16] was 2 × 10^2 cells/g of sample. For the same compound, the viable cell number [10, 17] was 1 × 10^2 cells/g of sample, the viable cell number [10, 18] was 8 × 10^3 cells/g of sample and the viable cell number [10, 19] was 3 × 10^4 cells/g of sample. The viable cell number [11, 14] was 2 × 10^2 cells/g of sample, the viable cell number [11, 15] was 8 × 10^2 cells/g of sample and the viable cell number [11, 16] was 5 × 10^2 cells/g of sample. The viable cell number [11, 17] was 2 × 10^2 cells/g of sample, the viable cell number [11, 18] was 3 × 10^3 cells/g of sample and the viable cell number [11, 19] was 5 × 10^4 cells/g of sample. For the same compound, the viable cell number [12, 15] was 1 × 10^2 cells/g of sample, the viable cell number [12, 16] was 7 × 10^2 cells/g of sample and the viable cell number [12, 17] was 5 × 10^2 cells/g of sample. The viable cell number [12, 18] was 4 × 10^3 cells/g of sample, the viable cell number [12, 19] was 1 × 10^4 cells/g of sample and the “effect against acid-fast bacteria” value [13] was “ineffective”.

— US7465576B2, “Method for treating periodontal disease with a bacteriocidal disinfectant” (priority 2004, dated 2008)
